Assay results: ChEMBL document CHEMBL4265894, “Developing potential Helicobacter pylori urease inhibitors from novel oxoindoline derivatives: Synthesis, biological evaluation and in silico study” (Bioorg Med Chem Lett, 2018)
Converted amounts (≈) assume the structure as drawn.

What was measured:
Helicobacter pylori = assay: Antibacterial activity against Helicobacter pylori after 48 hrs; type: functional
Urease = Urease (Helicobacter pylori, UniProt Q0PXQ5); assay: Inhibition of Helicobacter pylori urease after 50 mins by indophenol method
[1] = Cytotoxicity against human LO2 cells after 24 hrs by MTT assay; type: cell-based, L02
[2] = Cytotoxicity against HEK293T cells after 24 hrs by MTT assay; type: cell-based, HEK-293T; details: human

Sequence of Urease (Q0PXQ5 whole entry): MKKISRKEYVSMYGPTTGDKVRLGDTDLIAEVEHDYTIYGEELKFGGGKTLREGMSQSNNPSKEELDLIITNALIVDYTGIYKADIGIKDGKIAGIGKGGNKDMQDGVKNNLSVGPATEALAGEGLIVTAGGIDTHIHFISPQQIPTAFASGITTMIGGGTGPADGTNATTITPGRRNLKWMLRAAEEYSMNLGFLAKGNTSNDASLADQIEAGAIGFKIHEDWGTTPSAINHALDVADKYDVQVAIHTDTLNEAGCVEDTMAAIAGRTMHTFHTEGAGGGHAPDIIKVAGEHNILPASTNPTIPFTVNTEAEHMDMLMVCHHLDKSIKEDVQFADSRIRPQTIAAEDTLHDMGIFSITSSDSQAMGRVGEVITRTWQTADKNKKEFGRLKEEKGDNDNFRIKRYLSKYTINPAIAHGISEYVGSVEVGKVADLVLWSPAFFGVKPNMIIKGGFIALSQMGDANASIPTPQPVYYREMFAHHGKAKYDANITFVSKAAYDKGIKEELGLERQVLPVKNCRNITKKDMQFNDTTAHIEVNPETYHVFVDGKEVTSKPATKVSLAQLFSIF

| SMILES | MIC (Helicobacter pylori) | IC50 (Urease) | GI50 at 24 h [1] | GI50 at 24 h [2] |
| --- | --- | --- | --- | --- |
| Cc1ncc([N+](=O)[O-])n1CCO [METRONIDAZOLE] | 31.3 µM (≈ 5.36 µg/mL) |  |  |  |
| CC(=O)NO [ACETOHYDROXAMIC ACID] |  | 17.2 µM |  |  |
| CC(C)=CCN1C(=O)/C(=N/Nc2ccccc2)c2ccccc21 | > 200 µM | > 300 µM | > 200 µM | > 200 µM |
| COc1ccc(C(=O)N/N=C2/C(=O)N(CC=C(C)C)c3ccccc32)cc1 | 10.3 µM (≈ 3.74 µg/mL) | 6.99 µM |  |  |
| CC(C)=CCN1C(=O)/C(=N/NC(=O)c2ccc(C(C)C)cc2)c2ccccc21 | 27.5 µM (≈ 10.3 µg/mL) | 14.9 µM |  |  |
| CC(C)=CCN1C(=O)/C(=N/NC(=O)c2cccc(Br)c2)c2ccccc21 | 50.5 µM (≈ 20.8 µg/mL) | 27.6 µM |  |  |
| CC(C)=CCN1C(=O)/C(=N/NC(=O)c2ccccc2)c2ccccc21 | 171 µM (≈ 57 µg/mL) | 129 µM |  |  |
| CC(C)=CCN1C(=O)/C(=N/NC(=O)c2ccc(C(C)(C)C)cc2)c2ccccc21 | 30.8 µM (≈ 12 µg/mL) | 19.5 µM |  |  |
| CC(C)=CCN1C(=O)/C(=N/NC(=O)c2ccc(Oc3ccccc3)cc2)c2ccccc21 | 41.8 µM (≈ 17.8 µg/mL) | 22.7 µM |  |  |
| CC(C)=CCN1C(=O)/C(=N/NC(=O)c2cccc(C(F)(F)F)c2)c2ccccc21 | 108 µM (≈ 43.3 µg/mL) | 65.8 µM |  |  |
| CC(C)=CCN1C(=O)/C(=N/NC(=O)c2ccc(Br)cc2)c2ccccc21 | 137 µM (≈ 56.5 µg/mL) | 83.9 µM |  |  |
| COc1cc(OC)cc(C(=O)N/N=C2/C(=O)N(CC=C(C)C)c3ccccc32)c1 | 1.96 µM (≈ 0.771 µg/mL) | 1.35 µM | 188 µM | 176 µM |
| CC(C)=CCN1C(=O)/C(=N/NC(=O)c2cc(C)cc(C)c2)c2ccccc21 | 6.75 µM (≈ 2.44 µg/mL) | 4.38 µM |  |  |
| COc1cccc(C(=O)N/N=C2/C(=O)N(CC=C(C)C)c3ccccc32)c1 | 15.2 µM (≈ 5.52 µg/mL) | 8.21 µM |  |  |
| CC(C)=CCN1C(=O)/C(=N/NC(=O)c2cccc(Cl)c2)c2ccccc21 | 72.5 µM (≈ 26.7 µg/mL) | 38.1 µM |  |  |
| CC(C)=CCN1C(=O)/C(=N/NC(=O)c2ccc(C(F)(F)F)cc2)c2ccccc21 | 83.9 µM (≈ 33.7 µg/mL) | 44.1 µM |  |  |
| COc1ccc(C(=O)N/N=C2/C(=O)N(CC=C(C)C)c3ccccc32)cc1OC | 0.48 µM (≈ 0.189 µg/mL) | 0.71 µM | 178 µM | 184 µM |
| CC(C)=CCN1C(=O)/C(=N/NC(=O)c2ccc(F)cc2)c2ccccc21 | > 200 µM | 154 µM | > 200 µM | 195 µM |
| COc1ccccc1C(=O)N/N=C1/C(=O)N(CC=C(C)C)c2ccccc21 | 19.5 µM (≈ 7.09 µg/mL) | 11.7 µM |  |  |
| CC(C)=CCN1C(=O)/C(=N/NC(=O)c2ccc(Cl)cc2)c2ccccc21 | 185 µM (≈ 68 µg/mL) | 143 µM | > 200 µM | > 200 µM |
| CC(C)=CCN1C(=O)/C(=N/NC(=O)c2ccc(C)cc2)c2ccccc21 | 58.1 µM (≈ 20.2 µg/mL) | 29.9 µM |  |  |
| COc1ccc(C(=O)N/N=C2/C(=O)N(CC=C(C)C)c3ccccc32)cc1F | 3.94 µM (≈ 1.5 µg/mL) | 3.82 µM | > 200 µM | 169 µM |
